This passage reports Ki results from article PMC4757070, “Involvement of a Novel Class C Beta-Lactamase in the Transglutaminase Mediated Cross-Linking Cascade of Streptomyces mobaraensis DSM 40847” (PLoS ONE, 2016).

For assay [1], the target named is T1, beta-lactamase Sml-1 (rSml-1).
T1 construct: recombinant Sml-1 produced in E. coli BL21(DE3) RIL with pelB leader and C-terminal Gly-Leu-Glu-(His)6
In words: inhibition of nitrocefin hydrolysis at […] nm; Ki from IC50 ([…]) by Cheng-Prusoff. In kind it is biochemical, Streptomyces mobaraensis.

Assay [2] has the same target. The assay is described as above. The format is biochemical.

Read-outs that look alike come from different tables or passages of the source.

For the compound `CC1(C)S[C@@H]2[C@H](NC(=O)Cc3ccccc3)C(=O)N2[C@H]1C(=O)O` [penicillin G], the Ki (in general, the dissociation constant of the complex between target and ligand, obtained from inhibition or displacement) in assay [1] worked out at 100 µM.
The compound `CC1(C)S[C@@H]2[C@H](NC(=O)[C@H](N)c3ccccc3)C(=O)N2[C@H]1C(=O)O` [ampicillin] registered a Ki in assay [2] of 180 µM.
